Experimental data published in PubChem BioAssay AID1963977 (Molecular Pharmacology Branch, DTP, NCI, 2024).
pIC50: −log10 of the molar value.

Test system: 624824-186-R-J3-PDC multicell spheroids, viability
Assay: Anticancer human tumor 624824-186-R-J3-PDC patient-derived colon adenocarcinoma cell line growth inhibition [PI3K]
Details: for viability, T/C: stronger effect = lower value
Method in brief: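 Three cell types, namely tumor cells, endothelial cells and mesenchymal stem cells, formed each spheroid. Combinations with four PI3K inhibitors were screened at clinically achievable concentrations decreasing by half-log, and spheroid viability was recorded.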

[1] = curve of first compound, second compound 0.00316 µM
[2] = curve of first compound, second compound 0.01 µM
[3] = curve of first compound, second compound 0.0316 µM
[4] = curve of first compound, second compound 0.1 µM
[5] = curve of first compound, second compound 0.316 µM
[6] = curve of first compound, second compound 1 µM
[7] = second compound 0.00316 µM, first compound 0.0316 µM
[8] = second compound 0.00316 µM, first compound 0.1 µM
[9] = second compound 0.00316 µM, first compound 0.316 µM
[10] = second compound 0.00316 µM, first compound 1 µM
[11] = second compound 0.00316 µM, first compound 3.16 µM
[12] = second compound 0.00316 µM, first compound 10 µM
[13] = second compound 0.01 µM, first compound 0.0316 µM
[14] = second compound 0.01 µM, first compound 0.1 µM
[15] = second compound 0.01 µM, first compound 0.316 µM
[16] = second compound 0.01 µM, first compound 1 µM
[17] = second compound 0.01 µM, first compound 3.16 µM
[18] = second compound 0.01 µM, first compound 10 µM
[19] = second compound 0.0316 µM, first compound 0.0316 µM
[20] = second compound 0.0316 µM, first compound 0.1 µM
[21] = second compound 0.0316 µM, first compound 0.316 µM
[22] = second compound 0.0316 µM, first compound 1 µM
[23] = second compound 0.0316 µM, first compound 3.16 µM
[24] = second compound 0.0316 µM, first compound 10 µM
[25] = second compound 0.1 µM, first compound 0.0316 µM
[26] = second compound 0.1 µM, first compound 0.1 µM
[27] = second compound 0.1 µM, first compound 0.316 µM
[28] = second compound 0.1 µM, first compound 1 µM
[29] = second compound 0.1 µM, first compound 3.16 µM
[30] = second compound 0.1 µM, first compound 10 µM
[31] = second compound 0.316 µM, first compound 0.0316 µM
[32] = second compound 0.316 µM, first compound 0.1 µM
[33] = second compound 0.316 µM, first compound 0.316 µM
[34] = second compound 0.316 µM, first compound 1 µM
[35] = second compound 0.316 µM, first compound 3.16 µM
[36] = second compound 0.316 µM, first compound 10 µM
[37] = second compound 1 µM, first compound 0.0316 µM
[38] = second compound 1 µM, first compound 0.1 µM
[39] = second compound 1 µM, first compound 0.316 µM
[40] = second compound 1 µM, first compound 1 µM
[41] = second compound 1 µM, first compound 3.16 µM
[42] = second compound 1 µM, first compound 10 µM
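Also: spheroids exposed to agents for seven days before luminescence read.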
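For viability, T/C in this document: luminescent signal used as a stand-in for spheroid viability; percent viability relative to DMSO vehicle control wells taken as 100%.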

SMILES: Cn1ncc(Cl)c1-c1cc(C(=O)NC(CN)Cc2cccc(F)c2)sc1Cl (stereo not drawn) + COc1c(OCCCN2CCOCC2)ccc2c3n(c(=NC(=O)c4cnc(N)nc4)nc12)CCN3
- pIC50 [1]: 5.03
- pIC50 [2]: < 5.00
- pIC50 [3]: 5.38
- pIC50 [4]: 5.59
- pIC50 [5]: 6.34
- pIC50 [6]: > 7.50
- viability, T/C [7]: 106%
- viability, T/C [8]: 96.6%
- viability, T/C [9]: 92%
- viability, T/C [10]: 74.8%
- viability, T/C [11]: 68.5%
- viability, T/C [12]: 47.2%
- viability, T/C [13]: 97.6%
- viability, T/C [14]: 99.3%
- viability, T/C [15]: 95%
- viability, T/C [16]: 71.1%
- viability, T/C [17]: 57.3%
- viability, T/C [18]: 48.6%
- viability, T/C [19]: 94.2%
- viability, T/C [20]: 96.4%
- viability, T/C [21]: 83.6%
- viability, T/C [22]: 82.5%
- viability, T/C [23]: 52.8%
- viability, T/C [24]: 37.2%
- viability, T/C [25]: 78.8%
- viability, T/C [26]: 80.5%
- viability, T/C [27]: 75.4%
- viability, T/C [28]: 60.9%
- viability, T/C [29]: 48.8%
- viability, T/C [30]: 33%
- viability, T/C [31]: 54.2%
- viability, T/C [32]: 54.5%
- viability, T/C [33]: 51.5%
- viability, T/C [34]: 46%
- viability, T/C [35]: 39.9%
- viability, T/C [36]: 25.9%
- viability, T/C [37]: 32.4%
- viability, T/C [38]: 26.8%
- viability, T/C [39]: 27.8%
- viability, T/C [40]: 32.2%
- viability, T/C [41]: 29.7%
- viability, T/C [42]: 21.7%

SMILES: CC(Cn1ccc(-c2ccc(C#N)c(Cl)c2)n1)NC(=O)c1cc(C(C)O)[nH]n1 (stereo not drawn)
- viability, T/C (compound 0.0316 µM): 96.5% [middle of 4 runs]
- viability, T/C (compound 0.1 µM): 97.2% [middle of 4 runs]
- viability, T/C (compound 0.316 µM): 105% [middle of 4 runs]
- viability, T/C (compound 1 µM): 95.5% [middle of 4 runs]
- viability, T/C (compound 3.16 µM): 99.4% [middle of 4 runs]
- viability, T/C (compound 10 µM): 104% [middle of 4 runs]
- pIC50 (curve of compound): < 5.00

SMILES: Cn1cnc2c(F)c(Nc3ccc(Br)cc3Cl)c(C(=O)NOCCO)cc21 + COc1c(OCCCN2CCOCC2)ccc2c3n(c(=NC(=O)c4cnc(N)nc4)nc12)CCN3
- pIC50 [1]: 6.07
- pIC50 [2]: 6.24
- pIC50 [3]: 6.72
- pIC50 [4]: 7.32
- pIC50 [5]: > 8.02
- pIC50 [6]: > 8.02
- viability, T/C (second compound 0.00316 µM, first compound 0.00949 µM): 102%
- viability, T/C (second compound 0.00316 µM, first compound 0.03 µM): 95.9%
- viability, T/C (second compound 0.00316 µM, first compound 0.0949 µM): 102%
- viability, T/C (second compound 0.00316 µM, first compound 0.3 µM): 87.8%
- viability, T/C (second compound 0.00316 µM, first compound 0.949 µM): 46.3%
- viability, T/C (second compound 0.00316 µM, first compound 3 µM): 31.4%
- viability, T/C (second compound 0.01 µM, first compound 0.00949 µM): 108%
- viability, T/C (second compound 0.01 µM, first compound 0.03 µM): 88.4%
- viability, T/C (second compound 0.01 µM, first compound 0.0949 µM): 86.4%
- viability, T/C (second compound 0.01 µM, first compound 0.3 µM): 65.5%
- viability, T/C (second compound 0.01 µM, first compound 0.949 µM): 37.1%
- viability, T/C (second compound 0.01 µM, first compound 3 µM): 18.4%
- viability, T/C (second compound 0.0316 µM, first compound 0.00949 µM): 88.9%
- viability, T/C (second compound 0.0316 µM, first compound 0.03 µM): 89.6%
- viability, T/C (second compound 0.0316 µM, first compound 0.0949 µM): 67.4%
- viability, T/C (second compound 0.0316 µM, first compound 0.3 µM): 37.7%
- viability, T/C (second compound 0.0316 µM, first compound 0.949 µM): 18.2%
- viability, T/C (second compound 0.0316 µM, first compound 3 µM): 11.2%
- viability, T/C (second compound 0.1 µM, first compound 0.00949 µM): 75.2%
- viability, T/C (second compound 0.1 µM, first compound 0.03 µM): 57.9%
- viability, T/C (second compound 0.1 µM, first compound 0.0949 µM): 38.5%
- viability, T/C (second compound 0.1 µM, first compound 0.3 µM): 21%
- viability, T/C (second compound 0.1 µM, first compound 0.949 µM): 13.5%
- viability, T/C (second compound 0.1 µM, first compound 3 µM): 5.3%
- viability, T/C (second compound 0.316 µM, first compound 0.00949 µM): 43.3%
- viability, T/C (second compound 0.316 µM, first compound 0.03 µM): 28.9%
- viability, T/C (second compound 0.316 µM, first compound 0.0949 µM): 17.9%
- viability, T/C (second compound 0.316 µM, first compound 0.3 µM): 9.77%
- viability, T/C (second compound 0.316 µM, first compound 0.949 µM): 4.7%
- viability, T/C (second compound 0.316 µM, first compound 3 µM): 1.14%
- viability, T/C (second compound 1 µM, first compound 0.00949 µM): 22.7%
- viability, T/C (second compound 1 µM, first compound 0.03 µM): 16%
- viability, T/C (second compound 1 µM, first compound 0.0949 µM): 10.1%
- viability, T/C (second compound 1 µM, first compound 0.3 µM): 8.08%
- viability, T/C (second compound 1 µM, first compound 0.949 µM): 3.21%
- viability, T/C (second compound 1 µM, first compound 3 µM): 1.3%

SMILES: CC(C)NCC(C(=O)N1CCN(c2ncnc3c2C(C)CC3O)CC1)c1ccc(Cl)cc1 (stereo not drawn) + CC(Nc1ccc2c(c1)OCCn1cc(N3C(=O)OCC3C(F)F)nc1-2)C(N)=O
- pIC50 [1]: 5.17
- pIC50 [2]: 5.12
- pIC50 [3]: 5.27
- pIC50 [4]: 5.11
- pIC50 [5]: 5.37
- pIC50 [6]: 5.46
- viability, T/C [7]: 107%
- viability, T/C [8]: 96.8%
- viability, T/C [9]: 97.7%
- viability, T/C [10]: 73.1%
- viability, T/C [11]: 59.9%
- viability, T/C [12]: 45.4%
- viability, T/C [13]: 98.3%
- viability, T/C [14]: 96.8%
- viability, T/C [15]: 99.4%
- viability, T/C [16]: 72%
- viability, T/C [17]: 63.8%
- viability, T/C [18]: 45.3%
- viability, T/C [19]: 96.2%
- viability, T/C [20]: 93.4%
- viability, T/C [21]: 91.6%
- viability, T/C [22]: 77.4%
- viability, T/C [23]: 57.2%
- viability, T/C [24]: 41.7%
- viability, T/C [25]: 108%
- viability, T/C [26]: 94.1%
- viability, T/C [27]: 88.1%
- viability, T/C [28]: 83.7%
- viability, T/C [29]: 59.5%
- viability, T/C [30]: 46.4%
- viability, T/C [31]: 96.2%
- viability, T/C [32]: 91.8%
- viability, T/C [33]: 94.4%
- viability, T/C [34]: 72.5%
- viability, T/C [35]: 54.2%
- viability, T/C [36]: 41.9%
- viability, T/C [37]: 92%
- viability, T/C [38]: 88.8%
- viability, T/C [39]: 86.1%
- viability, T/C [40]: 65%
- viability, T/C [41]: 53.6%
- viability, T/C [42]: 35.1%
